In patent US10196346B2, “Substituted acethydrazide derivative, preparation method and use thereof” (Institute of Pharmacology and Toxicology Academy of …, priority 2014, dated 2019):

Each molecule was assayed against EGFP-HIF-1α fusion protein (Homo sapiens (Human), UniProt Q16665) (assay: Stabilization of HIF-1α in EGFP-HIF-1α-CHOhIR cell model (nuclear EGFP fluorescence imaging)). Conditions: CHOhIR cells stably expressing EGFP-HIF-1α; 3 h incubation; 0.03-30 μM; bipyridine 100 μM = 100% activation; read-out: Effects in stabilization of HIF-1α activity (EC50).
Assay type: cell-based
Procedure: CHOhIR cells (purchased from Thermo Fisher Scientific) which stably expressed EGFP-HIF-1α fusion protein were cultured under 37° C. and 5% CO2 in F12 culture solution containing 0.5 mg/ml G418 and 10% FBS, transplanted in an amount of 0.8×10^4 cells/100 μl/well on a 96-well culture plate that could be subjected to fluorescence detection, and cultured under 37° C. and 5% CO2 for 18-24 h. […] After the cells were incubated under 37° C. and 5% CO2 for 3 h, 12% formaldehyde in amount of 100 μl/well was added, fixation was carried out at room temperature for 30 min. Culture media was discarded, and the plate was washed with PBS twice, PBS containing 1 μM Hoechst was used, staining was performed at room temperature for 1 h. Detection was performed by IN Cell Analyzer 1000 live cell imaging system. Detection conditions were: 20× objective lens, excitation wavelength Ex=460 nm, emission wavelength […] to detect blue-fluorescence of cell nucleus passage; excitation wavelength Ex=475 nm, emission wavelength Em=535 nm, exposure 500 ms to detect green-fluorescence EGFP of cytoplasm passage, and pictures were taken continuously in 5 fields of view for each well. IN Cell Analyzer 1000 Multitarget Analysis Module of GE Company was used for analyzing aggregation of green-fluorescence of HIF-1α in cell nucleus, and BP100 μM treatment group was used as 100% activation of HIF-1α.
For COc1cccc(/C=N/NC(=O)CN(C)CCN(C)Cc2cccc3ccccc23)c1O [Example 1, (E)-N′-(3-methoxy-2-hydroxybenzal)-2-{N-{2-[N-(naphthalen-1-yl-methylene)-N-methylamino]ethyl}N-methylamino}acethydrazide], the EC50 was 2290 ± 270 nM.
CN(CCN(C)Cc1cccc2ccccc12)CC(=O)N/N=C/c1cc(C(C)(C)C)cc(C(C)(C)C)c1O [Example 2, (E)-N′-(3,5-di-tert-butyl-2-hydroxybenzal)-2-{N-{2-[N-(naphthalen-1-yl-methylene)-N-methylamino]ethyl}N-methylamino}acethydrazide] showed an EC50 of 17800 ± 4810 nM.
Molecule CCOc1cccc(/C=N/NC(=O)CN(C)CCN(C)Cc2cccc3ccccc23)c1O [Example 3, (E)-N′-(3-ethoxy-2-hydroxybenzal)-2-{N-{2-[N-(naphthalen-1-yl-methylene)-N-methylamino]ethyl}N-methylamino}acethydrazide] has an EC50 of 2110 ± 850 nM.
Molecule CN(CCN(C)Cc1cccc2ccccc12)CC(=O)N/N=C/c1c(O)ccc2ccccc12 [Example 4, (E)-N′-[(2-hydroxynaphthalen-1-yl)methylene]-2-{N-{2-[N-(naphthalen-1-yl-methylene)-N-methylamino]ethyl}N-methylamino}acethydrazide] has an EC50 of 830 ± 180 nM.
CCN(CC)c1ccc(/C=N/NC(=O)CN(C)CCN(C)Cc2cccc3ccccc23)c(O)c1 [Example 5, (E)-N′-(4-N,N-diethylamino-2-hydroxybenzal)-2-{N-{2-[N-(naphthalen-1-yl-methylene)-N-methylamino]ethyl}N-methylamino}acethydrazide] gave an EC50 of 780 ± 140 nM.
CN(CCN(C)Cc1cccc(C(F)(F)F)c1)CC(=O)N/N=C/c1cc(C(C)(C)C)cc(C(C)(C)C)c1O [Example 8, (E)-N′-(3,5-di-tert-butyl-2-hydroxybenzal)-2-{N-{2-[N-(3-trifluoromethylbenzyl)-N-methylamino]ethyl}N-methylamino}acethydrazide] showed an EC50 of 5230 ± 1390 nM.
For CCN(CC)c1ccc(/C=N/NC(=O)CN(C)CCN(C)Cc2cccc(C(F)(F)F)c2)c(O)c1 [Example 10, (E)-N′-(4-N,N-diethylamino-2-hydroxybenzal)-2-{N-{2-[N-(3-trifluoromethylbenzyl)-N-methylamino]ethyl}N-methylamino}acethydrazide], the EC50 was 600 ± 180 nM.
With CN(CCN(C)Cc1cccc(C(F)(F)F)c1)CC(=O)N/N=C/c1cccc(O)c1O [Example 11, (E)-N′-(2,3-dihydroxybenzal)-2-{N-{2-[N-(3-trifluoromethylbenzyl)-N-methylamino]ethyl}N-methylamino}acethydrazide] the EC50 was 170 ± 40 nM.
CCOc1cccc(/C=N/NC(=O)CN(C)CCN(C)Cc2ccc(C(C)C)cc2)c1O [Example 13, (E)-N′-[(3-ethoxy-2-hydroxybenzal)methylene]-2-{N-{2-[N-(4-isopropylbenzyl)-N-methylamino]ethyl}N-methylamino}acethydrazide] showed an EC50 of 800 ± 190 nM.
CC(C)c1ccc(CN(C)CCN(C)CC(=O)N/N=C/c2c(O)ccc3ccccc23)cc1 [Example 14, (E)-N′-[(2-hydroxynaphthalen-1-yl)methylene]-2-{N-{2-[N-(4-isopropylbenzyl)-N-methylamino]ethyl}N-methylamino}acethydrazide] gave an EC50 of 1020 ± 340 nM.
In the case of CC(C)c1ccc(CN(C)CCN(C)CC(=O)N/N=C/c2cc(C(C)(C)C)cc(C(C)(C)C)c2O)cc1 [Example 15, (E)-N′-(3,5-di-tert-butyl-2-hydroxybenzal)-2-{N-{2-[N-(4-isopropylbenzyl)-N-methylamino]ethyl}N-methylamino}acethydrazide], the EC50 is reported as 11200 ± 2870 nM.
CC(C)c1ccc(CN(C)CCN(C)CC(=O)N/N=C/c2cccc(O)c2O)cc1 [Example 17, (E)-N′-(2,3-dihydroxybenzal)-2-{N-{2-[N-(4-isopropylbenzyl)-N-methylamino]ethyl}N-methylamino}acethydrazide] gave an EC50 of 560 ± 150 nM.
Molecule CC(C)c1ccc(CN(C)CCN(C)CC(=O)N/N=C/c2cc(Br)ccc2O)cc1 [Example 18, (E)-N′-(3-bromo-6-hydroxybenzal)-2-{N-{2-[N-(4-isopropylbenzyl)-N-methylamino]ethyl}N-methylamino}acethydrazide] has an EC50 of 2280 ± 670 nM.
For COc1cccc(CN(C)CCN(C)CC(=O)N/N=C/c2cc(C(C)(C)C)cc(C(C)(C)C)c2O)c1 [Example 22, (E)-N′-(3,5-di-tert-butyl-2-hydroxybenzal)-2-{N-{2-[N-(3-methoxybenzyl)-N-methylamino]ethyl}N-methylamino}acethydrazide], the EC50 was 2770 ± 310 nM.
CCN(CC)c1ccc(/C=N/NC(=O)CN(C)CCN(C)Cc2cccc(OC)c2)c(O)c1 [Example 23, (E)-N′-(4-N,N-diethylamino-2-hydroxybenzal)-2-{N-{2-[N-(3-methoxybenzyl)-N-methylamino]ethyl}N-methylamino}acethydrazide] was tested, and the EC50 was 760 ± 150 nM.
In the case of COc1cccc(CN(C)CCN(C)CC(=O)N/N=C/c2cccc(O)c2O)c1 [Example 24, (E)-N′-(2,3-dihydroxybenzal)-2-{N-{2-[N-(3-methoxybenzyl)-N-methylamino]ethyl}N-methylamino}acethydrazide], the EC50 is reported as 820 ± 90 nM.
For COc1cccc(CN(C)CCN(C)CC(=O)N/N=C/c2cc(Br)ccc2O)c1 [Example 25, (E)-N′-(3-bromo-6-hydroxybenzal)-2-{N-{2-[N-(3-methoxybenzyl)-N-methylamino]ethyl}N-methylamino}acethydrazide], the EC50 was 7190 ± 1270 nM.
CN(CCN(C)Cc1ccc(C#N)cc1)CC(=O)N/N=C/c1c(O)ccc2ccccc12 [Example 26, (E)-N′-[(2-hydroxynaphthalen-1-yl)methylene]-2-{N-{2-[N-(4-cyanobenzyl)-N-methylamino]ethyl}N-methylamino}acethydrazide] showed an EC50 of 980 ± 100 nM.
Molecule CN(CCN(C)Cc1ccc(C#N)cc1)CC(=O)N/N=C/c1cc(C(C)(C)C)cc(C(C)(C)C)c1O [Example 27, (E)-N′-(3,5-di-tert-butyl-2-hydroxybenzal)-2-{N-{2-[N-(4-cyanobenzyl)-N-methylamino]ethyl}N-methylamino}acethydrazide] has an EC50 of 7750 ± 1330 nM.
COc1cccc(/C=N/NC(=O)CN(C)CCN(C)Cc2ccc(C#N)cc2)c1O [Example 28, (E)-N′-(3-methoxy-2-hydroxybenzal)-2-{N-{2-[N-(4-cyanobenzyl)-N-methylamino]ethyl}N-methylamino}acethydrazide] was tested, and the EC50 was 8420 ± 3150 nM.
Molecule CCOc1cccc(/C=N/NC(=O)CN(C)CCN(C)Cc2ccc(C#N)cc2)c1O [Example 29, (E)-N′-(3-ethoxy-2-hydroxybenzal)-2-{N-{2-[N-(4-cyanobenzyl)-N-methylamino]ethyl}N-methylamino}acethydrazide] has an EC50 of 2770 ± 390 nM.
In the case of CCN(CC)c1ccc(/C=N/NC(=O)CN(C)CCN(C)Cc2ccc(C#N)cc2)c(O)c1 [Example 30, (E)-N′-(4-N,N-diethylamino-2-hydroxybenzal)-2-{N-{2-[N-(4-cyanobenzyl)-N-methylamino]ethyl}N-methylamino}acethydrazide], the EC50 is reported as 530 ± 20 nM.
COc1cccc(/C=N/NC(=O)CN(C)CCN(C)Cc2ccc(C(C)(C)C)cc2)c1O [Example 31, (E)-N′-(3-methoxy-2-hydroxybenzal)-2-{N-{2-[N-(4-tert-butylbenzyl)-N-methylamino]ethyl}N-methylamino}acethydrazide] was tested, and the EC50 was 2760 ± 780 nM.
Molecule CCOc1cccc(/C=N/NC(=O)CN(C)CCN(C)Cc2ccc(C(C)(C)C)cc2)c1O [Example 32, (E)-N′-(3-ethoxy-2-hydroxybenzal)-2-{N-{2-[N-(4-tert-butylbenzyl)-N-methylamino]ethyl}N-methylamino}acethydrazide] has an EC50 of 1860 ± 570 nM.
With CCN(CC)c1ccc(/C=N/NC(=O)CN(C)CCCN(C)Cc2ccc(C(C)(C)C)cc2)c(O)c1 [Example 33, (E)-N′-(4-N,N-diethylamino-2-hydroxybenzal)-2-{N-{3-[N-(4-tert-butylbenzyl)-N-methylamino]propyl}N-methylamino}acethydrazide] the EC50 was 130 ± 20 nM.
